Experimental data from paper PMC5478271, “Chemical structure-guided design of dynapyrazoles, cell-permeable dynein inhibitors with a unique mode of action” (eLife, 2017).
Where “and” joins values, the source holds several entries; their conditions need not be identical. Identical values can stand only once.

Target: T1, AAA3 Walker A-mutant His-dynein 1 (K2601A) (Homo sapiens, UniProt Q14204, K2601A)
T1 construct: (wild-type, K1912A, K2601A, AA 1320–4646, uniprot: Q14204); made in house; host or cells: Sf9 insect cells (baculovirus)
Experiment: ATPase activity of AAA3 Walker A-mutant (K2601A) His-dynein 1
Format: biochemical
Details: for IC50: 2% DMSO, read-out: IC50, inhibition of the basal ATPase activity of the AAA3 Walker A-mutant His-dynein 1
Description: ATPase assays using recombinant Dynein 1 (wild-type and mutants) were performed in a buffer containing 25 mM PIPES pH7.0, 30 mM KCl, 1 mM EGTA, 5 mM MgCl2, 0.01% triton X-100, 1 mM DTT, and 20–30 µM taxol (if microtubules were present). For typical conditions, enzyme was incubated with varying concentrations of inhibitor in buffer containing 2% DMSO for 10 min in a volume of 10 μL. When microtubules were present, they were polymerized by stepwise addition of taxol and high concentrations of DMSO (30% final during polymerization reactions), and re-suspended following centrifugation in ATPase buffer to a concentration up to threefold above the final concentration used in the reaction (bovine brain tubulin, no fluoresecent label). For microtubule-stimulated reactions in dose-response format, reactions were assembled by 1:1:1 mixture of 3x enzyme stock, 3x compound stock (in buffer with 6% DMSO), and 3x microtubule stock to each well. For microtubule-stimulated ATPase assays at tubulin concentrations > 2.5 µM, enzyme stock was supplemented with compound stock in pure DMSO (resulting in an intermediate DMSO concentration of 6%), and then the microtubule stock was added. Final enzyme concentrations were 30–100 nM for GFP-dynein 1, wild-type 6x-His-dynein 1, and K2601A 6x-His-dynein 1 and up to 500 nM for K1912A 6x-His-dynein 1. The final DMSO concentration was 2% in all ATPase assays performed.
Assembled reaction mixtures (including enzyme, compound, and microtubules, if present) were incubated for 10 min before addition of ATP. Each ATPase reaction was initiated by addition of 2 μL of a 6x ATP stock containing trace γ-^32P ATP (3 µCi/mmol, 3 µCi/mL, Perkin Elmer) and allowed to proceed for a time predetermined to lie within the linear range of the assay (20–30 min). For typical conditions, ATP was used at a final concentration of 1 mM. Reactions were quenched by the addition of 12 µL 100 mM EDTA, and 2 μL of each quenched reaction was spotted onto PEI-cellulose TLC plates (Millipore). Plates were developed in a glass chamber with a freshly prepared solution of 150 mM formic acid and 150 mM LiCl, dried, exposed to a storage phosphor tray (GE Healthsciences), and scanned on a Typhoon imaging system (GE Healthsciences). The fraction of γ-phosphate hydrolyzed in each condition was quantified using FIJI.
Curve fitting: Where dose-response experiments are fit and IC50values given, these are obtained as follows: Individual experiments are treated as separate. The data are fit to a sigmoidal dose-response curve of the form (Y=Bottom + (Top-Bottom)/(1 + 10^((LogIC50-X)*HillSlope)). All variables were allowed to float freely with the exception of the variable denoted ‘bottom’, which was constrained to be >0. The separate IC50 values obtained from fits to each individual experiment's dataset were averaged together and presented as a mean with range (Figure 3G and H) or standard deviation (Figures 3I, 5D, 6E and K).

T1 sequence (Q14204 1320-4646 K2601A): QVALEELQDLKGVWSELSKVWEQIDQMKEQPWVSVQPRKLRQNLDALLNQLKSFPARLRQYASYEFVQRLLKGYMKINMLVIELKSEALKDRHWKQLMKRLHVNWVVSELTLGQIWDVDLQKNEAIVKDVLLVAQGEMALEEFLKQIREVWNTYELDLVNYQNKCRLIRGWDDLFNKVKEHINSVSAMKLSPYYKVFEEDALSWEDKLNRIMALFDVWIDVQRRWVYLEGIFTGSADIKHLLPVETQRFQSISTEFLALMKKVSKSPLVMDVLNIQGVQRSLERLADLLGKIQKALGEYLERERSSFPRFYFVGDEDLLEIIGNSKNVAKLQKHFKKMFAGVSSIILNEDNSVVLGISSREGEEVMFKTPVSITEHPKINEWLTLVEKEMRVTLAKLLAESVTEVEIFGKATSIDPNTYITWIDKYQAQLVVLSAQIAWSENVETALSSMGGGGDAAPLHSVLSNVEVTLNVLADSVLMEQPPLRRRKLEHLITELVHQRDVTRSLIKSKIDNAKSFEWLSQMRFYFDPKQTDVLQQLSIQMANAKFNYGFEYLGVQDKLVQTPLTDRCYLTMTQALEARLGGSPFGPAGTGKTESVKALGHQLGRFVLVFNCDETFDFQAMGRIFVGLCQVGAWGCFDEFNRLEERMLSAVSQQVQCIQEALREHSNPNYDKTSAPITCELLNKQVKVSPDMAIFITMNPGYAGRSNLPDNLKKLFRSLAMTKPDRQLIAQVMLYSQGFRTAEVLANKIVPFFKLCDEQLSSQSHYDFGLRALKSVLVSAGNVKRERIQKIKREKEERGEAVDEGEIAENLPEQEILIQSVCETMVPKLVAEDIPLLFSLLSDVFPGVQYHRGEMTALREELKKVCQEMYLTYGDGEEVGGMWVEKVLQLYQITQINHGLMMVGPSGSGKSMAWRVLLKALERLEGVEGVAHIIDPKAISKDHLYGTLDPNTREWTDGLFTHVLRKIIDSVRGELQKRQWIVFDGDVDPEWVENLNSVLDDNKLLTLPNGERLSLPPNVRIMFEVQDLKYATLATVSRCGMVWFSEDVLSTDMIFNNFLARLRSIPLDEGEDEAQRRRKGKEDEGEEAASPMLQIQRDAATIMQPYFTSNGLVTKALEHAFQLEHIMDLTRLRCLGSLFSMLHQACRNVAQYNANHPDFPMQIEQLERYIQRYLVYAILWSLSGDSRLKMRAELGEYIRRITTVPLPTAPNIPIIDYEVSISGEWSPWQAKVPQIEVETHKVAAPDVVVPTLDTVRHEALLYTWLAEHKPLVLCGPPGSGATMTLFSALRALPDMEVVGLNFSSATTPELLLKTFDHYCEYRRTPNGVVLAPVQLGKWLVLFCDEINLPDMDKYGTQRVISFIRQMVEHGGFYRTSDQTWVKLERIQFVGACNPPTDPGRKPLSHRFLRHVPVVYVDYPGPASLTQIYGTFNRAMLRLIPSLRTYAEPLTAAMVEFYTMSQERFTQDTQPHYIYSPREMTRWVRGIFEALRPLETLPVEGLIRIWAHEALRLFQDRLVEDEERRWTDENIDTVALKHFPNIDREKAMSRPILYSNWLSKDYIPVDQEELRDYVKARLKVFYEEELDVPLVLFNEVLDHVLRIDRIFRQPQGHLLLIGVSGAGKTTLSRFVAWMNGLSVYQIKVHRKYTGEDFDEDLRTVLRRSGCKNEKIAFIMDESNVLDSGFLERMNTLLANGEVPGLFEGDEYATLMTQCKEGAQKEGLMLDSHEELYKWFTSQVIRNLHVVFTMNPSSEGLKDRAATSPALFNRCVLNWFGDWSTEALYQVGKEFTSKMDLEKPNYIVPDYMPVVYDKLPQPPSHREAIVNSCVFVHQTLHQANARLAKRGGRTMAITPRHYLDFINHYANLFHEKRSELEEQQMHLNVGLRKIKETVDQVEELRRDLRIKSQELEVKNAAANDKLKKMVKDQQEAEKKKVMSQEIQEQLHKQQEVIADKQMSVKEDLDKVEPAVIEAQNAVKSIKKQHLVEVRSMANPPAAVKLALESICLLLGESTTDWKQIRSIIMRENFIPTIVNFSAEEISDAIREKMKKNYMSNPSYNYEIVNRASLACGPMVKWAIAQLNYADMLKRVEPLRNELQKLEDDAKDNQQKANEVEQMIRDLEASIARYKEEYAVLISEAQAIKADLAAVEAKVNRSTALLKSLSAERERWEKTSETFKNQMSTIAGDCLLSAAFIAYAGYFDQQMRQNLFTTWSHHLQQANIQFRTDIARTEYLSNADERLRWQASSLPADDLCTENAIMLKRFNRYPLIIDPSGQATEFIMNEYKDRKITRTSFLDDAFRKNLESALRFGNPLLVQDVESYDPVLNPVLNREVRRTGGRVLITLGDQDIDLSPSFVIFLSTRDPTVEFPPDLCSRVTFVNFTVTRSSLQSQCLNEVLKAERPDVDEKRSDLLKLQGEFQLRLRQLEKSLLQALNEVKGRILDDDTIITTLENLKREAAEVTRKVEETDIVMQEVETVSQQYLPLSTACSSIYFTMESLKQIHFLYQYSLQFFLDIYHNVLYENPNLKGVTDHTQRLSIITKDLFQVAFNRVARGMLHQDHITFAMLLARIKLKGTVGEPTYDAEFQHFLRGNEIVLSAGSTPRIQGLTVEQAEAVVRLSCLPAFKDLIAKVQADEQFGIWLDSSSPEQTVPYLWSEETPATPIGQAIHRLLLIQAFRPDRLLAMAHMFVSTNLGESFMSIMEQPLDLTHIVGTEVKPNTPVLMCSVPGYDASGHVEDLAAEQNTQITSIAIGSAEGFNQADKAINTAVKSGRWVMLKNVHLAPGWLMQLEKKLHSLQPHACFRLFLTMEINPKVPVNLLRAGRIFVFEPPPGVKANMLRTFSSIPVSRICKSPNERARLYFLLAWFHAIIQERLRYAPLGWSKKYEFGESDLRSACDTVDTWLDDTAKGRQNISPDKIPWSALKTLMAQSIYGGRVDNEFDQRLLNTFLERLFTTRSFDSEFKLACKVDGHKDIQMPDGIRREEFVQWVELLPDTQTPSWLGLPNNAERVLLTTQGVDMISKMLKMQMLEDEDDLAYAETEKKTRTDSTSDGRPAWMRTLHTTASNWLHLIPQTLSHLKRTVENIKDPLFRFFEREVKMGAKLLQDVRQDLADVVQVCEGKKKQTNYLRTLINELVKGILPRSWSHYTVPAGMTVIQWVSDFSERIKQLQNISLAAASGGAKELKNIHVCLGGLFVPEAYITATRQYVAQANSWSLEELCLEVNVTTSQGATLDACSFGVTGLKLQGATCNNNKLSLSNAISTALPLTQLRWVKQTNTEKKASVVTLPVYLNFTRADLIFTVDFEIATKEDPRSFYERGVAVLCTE

## N#Cc1c(C2(c3ccc(Cl)cc3)CC2)nn2c1[nH]c(=O)c1cc(I)ccc12 [Compound 8, 2-[1-(4-chlorophenyl)cyclopropyl]-7-iodo-5-oxo-4H-pyrazolo[1,5-a]quinazoline-3-carbonitrile]
30 µM compound, 1 mM MgATP
  Reduction of AAA3 mutant dynein's ATPase activity across the range of microtubule concentrations tested: 70–80%
30 µM compound, no microtubules, read-out: Inhibition of basal activity of the AAA3 mutant
  inhibition at 30 µM: ~70%
1 mM MgATP
  IC50: 5.5 ± 1.6 µM
Basal activity, dose-response
  Residual ATPase activity of AAA3 mutant at the highest concentrations tested: ~ 0.2 s^−1

## N#C/C(C(=O)c1ccc(Cl)cc1Cl)=C1\NC(=O)c2ccc(Cl)cc2N1 [ciliobrevin D, reference compound]
1 mM MgATP
  IC50: 38.4 µM and 38 µM
